For one molecule, inhibition and Competition % results are on record in patent US20120270237A9, “METHODS FOR THE IDENTIFICATION OF KINASE INTERACTING MOLECULES AND FOR THE PURIFICATION OF KINASE PROTEINS” (Cellzone AG, priority 2009, published 2012).

The target in experiment [1] is CK2a1 (Homo sapiens, UniProt P68400). The experiment in a line: Kinobeads competition binding, L-363 cell lysate. The note with it: 10 μM free compound, L-363 lysate. Also noted: capturing and identification of kinases from L-363 cell lysate; endogenous in cells; host or cells: L-363 cells (DSMZ ACC49), pre-treated with MG132. The protocol: (§1) To one aliquot of cell lysate 10 μM of the free compound (FIG. 3, CZC31326) was added and allowed to bind to proteins in the lysate. Then the affinity matrix with the immobilized compound was added to capture proteins that were not interacting with the previously added free compound. Beads were separated from the lysate and bead bound proteins were eluted in SDS sample buffer and subsequently separated by SDS-Polyacrylamide gel electrophoresis (FIG. 8). Suitable gel bands were cut out and subjected to in-gel proteolytic digestion with trypsin. The second lysate aliquot was processed identically, however no free compound was added (DMSO solvent control). Peptides originating from samples 1 and 2 were labeled with iTRAQ reagents (iTRAQ 114 and iTRAQ 117) and the combined samples were analyzed with a nano-flow liquid chromatography system coupled online to a tandem mass spectrometer (LC-MS/MS) experiment followed by iTRAQ reporter ion quantification in the MS/MS spectra as described in Example 2.
(§2) For this experiment the human plasma cell leukaemia line L-363 was used (German Collection of Microorganisms and Cell Cultures, DSMZ number ACC49, Braunschweig, Germany). Cells were treated for three hours with 20 μM of the proteasome inhibitor MG132 (Z-Leu-Leu-Leu-al, Sigma C2211) prior to cell harvesting.

In experiment [2] the target is CDC2 (Homo sapiens, UniProt P06493). The experiment in a line: Kinobeads competition binding, L-363 cell lysate. More on the design: capturing and identification of kinases from L-363 cell lysate; endogenous in cells; host or cells: L-363 cells (DSMZ ACC49), pre-treated with MG132. The note with it: 10 μM free compound, L-363 lysate. As for the experimental part:
as §1, §2

Experiment [3] deals with CaMKK2 (Homo sapiens, UniProt Q96RR4). The experiment in a line: Kinobeads competition binding, L-363 cell lysate. More on the design: capturing and identification of kinases from L-363 cell lysate; endogenous in cells; host or cells: L-363 cells (DSMZ ACC49), pre-treated with MG132. As to conditions: 10 μM free compound, L-363 lysate. The protocol: as §1, §2
The target in experiment [4] is MLK3 (Homo sapiens, UniProt Q16584). The experiment in a line: Kinobeads competition binding, HeLa Placenta lysate mix. More on the design: capturing and identification of kinases from mixed HeLa placenta lysates; endogenous in cells; host or cells: mixed lysate of HeLa cells and placenta tissue. As to conditions: 10 μM free compound. As for the experimental part: as §1, with “10).” for “8).”

The target of experiment [5] is AurB (Homo sapiens, UniProt Q96GD4). The experiment is described as above. More on the design: capturing and identification of kinases from mixed HeLa placenta lysates; endogenous in cells; host or cells: mixed lysate of HeLa cells and placenta tissue. As to conditions: 10 μM free compound. The protocol:
as §1, with “10).” for “8).”

Experiment [6] has as its target MARK3 (Homo sapiens, UniProt P27448). The description is as above. More on the design: capturing and identification of kinases from mixed HeLa placenta lysates; endogenous in cells; host or cells: mixed lysate of HeLa cells and placenta tissue. As to conditions: 10 μM free compound. As for the experimental part:
as §1, with “10).” for “8).”

Experiment [7] concerns the target CaMK2d (Homo sapiens, UniProt Q13557). The experiment is described as above. More on the design: capturing and identification of kinases from mixed HeLa placenta lysates; endogenous in cells; host or cells: mixed lysate of HeLa cells and placenta tissue. The note with it: 10 μM free compound. As for the experimental part:
as §1, with “10).” for “8).”

The target in experiment [8] is FES (Homo sapiens, UniProt P07332). The experiment is described as above. The note with it: 10 μM free compound. Also noted: capturing and identification of kinases from mixed HeLa placenta lysates; endogenous in cells; host or cells: mixed lysate of HeLa cells and placenta tissue. The protocol: as §1, with “10).” for “8).”
The target in experiment [9] is T1, MAP2K5 (Homo sapiens, UniProt Q13163).
T1 sequence (Q13163 1-448): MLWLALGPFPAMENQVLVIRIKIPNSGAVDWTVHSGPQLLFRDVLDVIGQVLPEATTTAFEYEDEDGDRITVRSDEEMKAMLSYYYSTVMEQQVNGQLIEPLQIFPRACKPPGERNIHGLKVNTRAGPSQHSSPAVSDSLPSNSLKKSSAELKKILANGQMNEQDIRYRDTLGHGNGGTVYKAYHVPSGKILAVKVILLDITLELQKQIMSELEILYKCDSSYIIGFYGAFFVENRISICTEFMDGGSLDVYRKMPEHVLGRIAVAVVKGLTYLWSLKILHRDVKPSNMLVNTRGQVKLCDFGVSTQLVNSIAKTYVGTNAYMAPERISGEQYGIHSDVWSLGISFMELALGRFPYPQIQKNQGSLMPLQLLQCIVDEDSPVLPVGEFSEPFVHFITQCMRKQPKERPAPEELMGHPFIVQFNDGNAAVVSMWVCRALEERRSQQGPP
The experiment is described as above. More on the design: capturing and identification of kinases from mixed HeLa placenta lysates; endogenous in cells; host or cells: mixed lysate of HeLa cells and placenta tissue. As to conditions: 10 μM free compound. As for the experimental part: as §1, with “10).” for “8).”

CaMKK2, sequence (Q96RR4 whole entry): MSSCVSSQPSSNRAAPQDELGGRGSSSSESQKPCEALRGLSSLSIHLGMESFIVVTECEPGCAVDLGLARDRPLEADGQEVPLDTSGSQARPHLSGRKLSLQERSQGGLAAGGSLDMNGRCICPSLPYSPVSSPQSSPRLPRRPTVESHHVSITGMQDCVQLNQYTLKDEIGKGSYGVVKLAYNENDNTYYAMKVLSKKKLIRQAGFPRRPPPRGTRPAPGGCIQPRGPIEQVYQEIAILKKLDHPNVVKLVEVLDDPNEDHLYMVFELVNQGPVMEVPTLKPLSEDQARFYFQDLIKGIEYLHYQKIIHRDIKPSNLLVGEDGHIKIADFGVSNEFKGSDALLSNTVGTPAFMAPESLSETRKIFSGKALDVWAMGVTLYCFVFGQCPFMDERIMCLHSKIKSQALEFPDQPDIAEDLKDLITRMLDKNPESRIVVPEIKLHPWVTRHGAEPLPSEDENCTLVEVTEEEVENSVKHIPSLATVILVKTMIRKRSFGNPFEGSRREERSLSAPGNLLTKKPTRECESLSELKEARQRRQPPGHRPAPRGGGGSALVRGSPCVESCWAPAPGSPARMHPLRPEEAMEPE
CDC2, sequence (P06493 whole entry): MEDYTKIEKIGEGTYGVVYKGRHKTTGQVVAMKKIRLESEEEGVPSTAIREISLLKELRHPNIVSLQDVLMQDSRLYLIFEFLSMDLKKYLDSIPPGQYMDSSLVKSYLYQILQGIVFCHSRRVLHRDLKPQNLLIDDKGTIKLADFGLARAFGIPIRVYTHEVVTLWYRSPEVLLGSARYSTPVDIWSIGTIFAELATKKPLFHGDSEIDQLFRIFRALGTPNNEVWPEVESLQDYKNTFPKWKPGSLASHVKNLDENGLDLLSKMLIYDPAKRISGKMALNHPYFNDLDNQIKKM
AurB, sequence (Q96GD4 whole entry): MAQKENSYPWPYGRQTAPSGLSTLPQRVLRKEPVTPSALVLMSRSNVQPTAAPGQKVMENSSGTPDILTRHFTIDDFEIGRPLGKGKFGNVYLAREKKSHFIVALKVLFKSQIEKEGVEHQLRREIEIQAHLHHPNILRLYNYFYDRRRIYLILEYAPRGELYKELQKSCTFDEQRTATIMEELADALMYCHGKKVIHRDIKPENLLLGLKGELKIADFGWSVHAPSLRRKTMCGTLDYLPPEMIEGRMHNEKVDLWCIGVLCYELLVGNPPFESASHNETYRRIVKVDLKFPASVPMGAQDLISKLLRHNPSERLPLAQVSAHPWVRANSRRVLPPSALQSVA
FES, sequence (P07332 whole entry): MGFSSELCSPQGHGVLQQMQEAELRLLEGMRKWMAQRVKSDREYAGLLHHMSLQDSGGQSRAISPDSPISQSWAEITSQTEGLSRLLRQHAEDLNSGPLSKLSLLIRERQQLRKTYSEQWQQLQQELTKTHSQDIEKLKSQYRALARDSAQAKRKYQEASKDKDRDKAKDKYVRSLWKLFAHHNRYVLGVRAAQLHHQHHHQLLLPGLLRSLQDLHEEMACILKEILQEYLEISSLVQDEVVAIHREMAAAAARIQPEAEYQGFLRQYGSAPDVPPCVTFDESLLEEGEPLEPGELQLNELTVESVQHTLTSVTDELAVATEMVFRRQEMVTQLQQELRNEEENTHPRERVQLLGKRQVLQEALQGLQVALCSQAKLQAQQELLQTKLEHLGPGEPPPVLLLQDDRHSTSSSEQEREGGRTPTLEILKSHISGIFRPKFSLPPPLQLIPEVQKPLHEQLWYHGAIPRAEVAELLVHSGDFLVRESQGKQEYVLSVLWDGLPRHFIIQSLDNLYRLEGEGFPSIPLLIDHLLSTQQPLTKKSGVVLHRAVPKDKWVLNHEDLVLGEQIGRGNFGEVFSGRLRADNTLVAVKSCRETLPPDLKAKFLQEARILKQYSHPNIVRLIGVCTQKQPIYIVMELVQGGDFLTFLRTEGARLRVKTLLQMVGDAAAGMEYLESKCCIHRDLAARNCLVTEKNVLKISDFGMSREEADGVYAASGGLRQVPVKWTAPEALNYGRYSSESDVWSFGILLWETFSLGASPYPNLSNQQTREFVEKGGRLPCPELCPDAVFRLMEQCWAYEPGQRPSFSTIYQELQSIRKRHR
CK2a1, sequence (P68400 whole entry): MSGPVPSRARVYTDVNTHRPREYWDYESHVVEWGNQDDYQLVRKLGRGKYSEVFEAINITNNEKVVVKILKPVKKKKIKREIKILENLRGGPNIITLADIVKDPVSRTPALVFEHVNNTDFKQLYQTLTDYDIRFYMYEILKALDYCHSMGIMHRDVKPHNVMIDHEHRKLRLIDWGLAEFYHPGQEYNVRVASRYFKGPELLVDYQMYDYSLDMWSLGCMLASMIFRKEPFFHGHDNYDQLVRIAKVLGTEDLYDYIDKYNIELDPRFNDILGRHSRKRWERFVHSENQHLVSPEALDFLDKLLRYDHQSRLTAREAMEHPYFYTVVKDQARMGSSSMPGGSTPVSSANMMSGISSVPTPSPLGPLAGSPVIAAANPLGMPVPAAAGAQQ
MLK3, sequence (Q16584 whole entry): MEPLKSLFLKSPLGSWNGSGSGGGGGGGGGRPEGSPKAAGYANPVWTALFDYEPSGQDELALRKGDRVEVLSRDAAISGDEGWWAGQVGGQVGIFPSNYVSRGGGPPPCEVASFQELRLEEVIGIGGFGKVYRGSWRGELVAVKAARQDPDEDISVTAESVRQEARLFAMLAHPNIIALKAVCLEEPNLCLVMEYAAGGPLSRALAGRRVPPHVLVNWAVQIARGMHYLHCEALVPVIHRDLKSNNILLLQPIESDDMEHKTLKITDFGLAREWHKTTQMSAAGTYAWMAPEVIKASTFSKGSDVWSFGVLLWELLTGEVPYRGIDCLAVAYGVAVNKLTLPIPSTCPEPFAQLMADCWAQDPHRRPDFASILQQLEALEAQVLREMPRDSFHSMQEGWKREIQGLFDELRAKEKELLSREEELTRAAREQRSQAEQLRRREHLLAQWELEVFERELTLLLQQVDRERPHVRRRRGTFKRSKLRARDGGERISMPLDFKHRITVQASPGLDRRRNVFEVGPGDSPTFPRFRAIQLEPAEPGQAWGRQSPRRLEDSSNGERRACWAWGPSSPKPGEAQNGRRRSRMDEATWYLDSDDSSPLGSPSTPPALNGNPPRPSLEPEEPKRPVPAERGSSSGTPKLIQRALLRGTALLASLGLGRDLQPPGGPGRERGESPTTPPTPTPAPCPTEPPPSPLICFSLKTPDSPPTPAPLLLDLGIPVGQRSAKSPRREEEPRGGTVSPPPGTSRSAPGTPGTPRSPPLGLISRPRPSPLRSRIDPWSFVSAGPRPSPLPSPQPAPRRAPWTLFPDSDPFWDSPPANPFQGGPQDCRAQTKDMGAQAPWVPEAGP
CaMK2d, sequence (Q13557 whole entry): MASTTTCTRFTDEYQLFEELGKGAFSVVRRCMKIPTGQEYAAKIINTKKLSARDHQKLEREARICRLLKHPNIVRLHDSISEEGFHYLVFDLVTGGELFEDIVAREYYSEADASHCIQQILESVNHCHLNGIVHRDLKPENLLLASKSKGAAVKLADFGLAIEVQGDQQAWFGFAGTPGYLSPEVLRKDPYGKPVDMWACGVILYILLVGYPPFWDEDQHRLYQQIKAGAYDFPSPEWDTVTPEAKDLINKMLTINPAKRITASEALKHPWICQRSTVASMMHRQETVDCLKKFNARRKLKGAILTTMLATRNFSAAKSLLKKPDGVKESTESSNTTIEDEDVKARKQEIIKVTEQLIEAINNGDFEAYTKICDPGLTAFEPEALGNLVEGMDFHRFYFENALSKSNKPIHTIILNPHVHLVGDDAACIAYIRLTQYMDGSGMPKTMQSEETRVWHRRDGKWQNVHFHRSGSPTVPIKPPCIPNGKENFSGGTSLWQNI
MARK3, sequence (P27448 whole entry): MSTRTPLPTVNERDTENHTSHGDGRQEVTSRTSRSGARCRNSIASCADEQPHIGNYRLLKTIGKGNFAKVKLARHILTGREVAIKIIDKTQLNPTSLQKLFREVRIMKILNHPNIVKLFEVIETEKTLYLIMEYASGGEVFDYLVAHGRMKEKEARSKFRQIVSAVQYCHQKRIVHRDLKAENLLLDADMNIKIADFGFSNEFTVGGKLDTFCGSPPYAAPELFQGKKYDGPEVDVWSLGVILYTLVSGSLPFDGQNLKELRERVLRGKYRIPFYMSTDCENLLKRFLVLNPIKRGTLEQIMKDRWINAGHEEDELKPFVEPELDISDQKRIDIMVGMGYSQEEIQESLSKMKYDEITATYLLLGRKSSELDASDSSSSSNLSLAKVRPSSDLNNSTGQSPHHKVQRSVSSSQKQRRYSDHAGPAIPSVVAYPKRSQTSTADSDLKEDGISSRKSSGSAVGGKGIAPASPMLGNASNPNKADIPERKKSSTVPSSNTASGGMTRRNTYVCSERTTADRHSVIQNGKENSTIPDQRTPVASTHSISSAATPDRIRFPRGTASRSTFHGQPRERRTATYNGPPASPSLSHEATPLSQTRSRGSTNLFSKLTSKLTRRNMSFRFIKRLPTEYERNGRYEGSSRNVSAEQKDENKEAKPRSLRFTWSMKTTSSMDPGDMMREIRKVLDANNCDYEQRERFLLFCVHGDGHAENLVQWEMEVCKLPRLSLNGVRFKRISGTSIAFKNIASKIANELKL

On to `CS(=O)(=O)Nc1ccccc1Nc1nc(Nc2cccc(OCCN)c2)ncc1Cl` [CZC31326, N-(2-(2-(3-(2-aminoethoxy)phenylamino)-5-chloropyrimidin-4-ylamino)phenyl)methanesulfonamide], for which the inhibition at 10 µM in experiment [1] turned out to be 97.9%; in [2] it was 95.1%; in experiment [3], 97%; in experiment [5], 90.8%; in experiment [6] it was 93.1%; in experiment [7] it was 72.1%. The inhibition at 10 µM came to 95.1% in experiment [8] and 90.4% in experiment [9]. This molecule yielded a Competition % in [4] of 93.8%.

By inhibition is commonly meant the drop in the measured response relative to a control, in per cent.
